From ChEMBL document CHEMBL1201862, “PubChem BioAssay data set” (2004)
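Exposure lasted 48 hours, with cells grown in 96-well plates and compounds tested at five concentrations. GI50: concentration for 50% inhibition of growth.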 The source made the active and inactive calls. Rule as the data show it: active = GI50 up to about 1.1 µM and inactive = higher.

Tests used:
Assay in all cases: NCI tumour cell line growth inhibition, 48 h
NCI-H23 = test system: NCI-H23
KM12 = test system: KM12
HCT-15 = test system: HCT-15
NCI/ADR-RES = test system: NCI/ADR-RES
SW-620 = test system: SW-620
U-251 = test system: U-251
A549 = test system: A549
MDA-MB-231 = test system: MDA-MB-231
LOX IMVI = test system: LOX IMVI
EKVX = test system: EKVX
786-0 = test system: 786-0
MCF7 = test system: MCF7
OVCAR-4 = test system: OVCAR-4
T47D = test system: T47D
SF-295 = test system: SF-295
A498 = test system: A498
HOP-92 = test system: HOP-92
SNB-75 = test system: SNB-75
SK-OV-3 = test system: SK-OV-3
NCI-H460 = test system: NCI-H460
TK-10 = test system: TK-10
MDA-MB-435 = test system: MDA-MB-435
PC-3 = test system: PC-3
RPMI-8226 = test system: RPMI-8226
M14 = test system: M14
CAKI-1 = test system: CAKI-1
SK-MEL-2 = test system: SK-MEL-2
SF-539 = test system: SF-539
MDA-N = test system: MDA-N
HCT-116 = test system: HCT-116
OVCAR-8 = test system: OVCAR-8
SNB-19 = test system: SNB-19
COLO 205 = test system: COLO 205
UACC-257 = test system: UACC-257
SF-268 = test system: SF-268
OVCAR-5 = test system: OVCAR-5
RXF 393 = test system: RXF 393
Malme-3M = test system: Malme-3M
NCI-H522 = test system: NCI-H522
UO-31 = test system: UO-31
HCC 2998 = test system: HCC 2998
OVCAR-3 = test system: OVCAR-3
SK-MEL-28 = test system: SK-MEL-28
NCI-H226 = test system: NCI-H226
IGROV-1 = test system: IGROV-1
SK-MEL-5 = test system: SK-MEL-5
ACHN = test system: ACHN
SN12C = test system: SN12C
BT-549 = test system: BT-549
HOP-62 = test system: HOP-62
SR = test system: SR
K562 = test system: K562
UACC-62 = test system: UACC-62
MOLT-4 = test system: MOLT-4
HL-60 = test system: HL-60
CCRF-CEM = test system: CCRF-CEM
HT-29 = test system: HT-29
Hs-578T = test system: Hs-578T
DU-145 = test system: DU-145

Measured: GI50

COC(=O)c1cc2ccc(N)nc2[nH]c1=O
inactive: NCI-H23 > 100 µM | KM12 > 100 µM | NCI/ADR-RES > 100 µM | SW-620 > 100 µM | U-251 > 100 µM | A549 > 100 µM | MDA-MB-231 > 100 µM | LOX IMVI > 100 µM | EKVX > 100 µM | 786-0 > 100 µM | MCF7 > 100 µM | OVCAR-4 > 100 µM | T47D > 100 µM | SF-295 > 100 µM | A498 > 100 µM | HOP-92 > 100 µM | SNB-75 > 100 µM | SK-OV-3 > 100 µM | NCI-H460 > 100 µM | TK-10 > 100 µM | MDA-MB-435 > 100 µM | PC-3 > 100 µM | RPMI-8226 > 100 µM | M14 > 100 µM | CAKI-1 > 100 µM | SK-MEL-2 > 100 µM | SF-539 > 100 µM | MDA-N > 100 µM | HCT-116 > 100 µM | OVCAR-8 > 100 µM | SNB-19 > 100 µM | COLO 205 > 100 µM | UACC-257 > 100 µM | SF-268 > 100 µM | OVCAR-5 > 100 µM | RXF 393 > 100 µM | Malme-3M > 100 µM | NCI-H522 > 100 µM | UO-31 > 100 µM | HCC 2998 > 100 µM | OVCAR-3 > 100 µM | SK-MEL-28 > 100 µM | NCI-H226 > 100 µM | IGROV-1 > 100 µM | SK-MEL-5 > 100 µM | ACHN > 100 µM | SN12C > 100 µM | BT-549 > 100 µM | HOP-62 > 100 µM
> 100 µM: HCT-15

Cn1cnc([N+](=O)[O-])c1Sc1nncc2[nH]cnc12
inactive: SR > 100 µM | NCI-H23 > 100 µM | KM12 > 100 µM | NCI/ADR-RES > 100 µM | SW-620 > 100 µM | U-251 > 100 µM | A549 > 100 µM | MDA-MB-231 > 100 µM | K562 > 100 µM | LOX IMVI > 100 µM | EKVX > 100 µM | 786-0 > 100 µM | MCF7 > 100 µM | OVCAR-4 > 100 µM | T47D > 100 µM | SF-295 > 100 µM | A498 > 100 µM | HOP-92 > 100 µM | SNB-75 > 100 µM | SK-OV-3 > 100 µM | TK-10 > 100 µM | MDA-MB-435 > 100 µM | PC-3 > 100 µM | RPMI-8226 > 100 µM | M14 > 100 µM | CAKI-1 > 100 µM | SK-MEL-2 > 100 µM | SF-539 > 100 µM | UACC-62 > 100 µM | MDA-N > 100 µM | HCT-116 > 100 µM | OVCAR-8 > 100 µM | SNB-19 7.82 µM | COLO 205 > 100 µM | UACC-257 > 100 µM | OVCAR-5 > 100 µM | MOLT-4 > 100 µM | HL-60 > 100 µM | Malme-3M 28.8 µM | NCI-H522 > 100 µM | UO-31 > 100 µM | HCC 2998 > 100 µM | OVCAR-3 > 100 µM | SK-MEL-28 > 100 µM | NCI-H226 > 100 µM | CCRF-CEM > 100 µM | HT-29 > 100 µM | IGROV-1 > 100 µM | SK-MEL-5 > 100 µM | ACHN > 100 µM | SN12C > 100 µM | BT-549 > 100 µM | HOP-62 > 100 µM
> 100 µM: HCT-15

COc1cc(C2SCC(=O)N2NC(=O)c2ccc(NC(C)=O)cc2)cc(OC)c1OC (centres undefined)
inactive: NCI-H23 > 100 µM | KM12 > 100 µM | NCI/ADR-RES > 100 µM | SW-620 > 100 µM | U-251 > 100 µM | A549 > 100 µM | MDA-MB-231 > 100 µM | K562 35.8 µM | EKVX > 100 µM | 786-0 > 100 µM | MCF7 > 100 µM | OVCAR-4 > 100 µM | T47D > 100 µM | SF-295 > 100 µM | A498 > 100 µM | HOP-92 > 100 µM | SNB-75 > 100 µM | SK-OV-3 > 100 µM | NCI-H460 > 100 µM | TK-10 > 100 µM | Hs-578T > 100 µM | MDA-MB-435 > 100 µM | RPMI-8226 > 100 µM | M14 > 100 µM | SK-MEL-2 > 100 µM | SF-539 > 100 µM | UACC-62 > 100 µM | HCT-116 > 100 µM | OVCAR-8 > 100 µM | SNB-19 > 100 µM | COLO 205 > 100 µM | UACC-257 > 100 µM | SF-268 > 100 µM | OVCAR-5 > 100 µM | MOLT-4 > 100 µM | HL-60 > 100 µM | RXF 393 > 100 µM | UO-31 > 100 µM | HCC 2998 > 100 µM | OVCAR-3 > 100 µM | SK-MEL-28 > 100 µM | NCI-H226 > 100 µM | HT-29 > 100 µM | IGROV-1 > 100 µM | SK-MEL-5 > 100 µM | DU-145 > 100 µM | ACHN > 100 µM | SN12C > 100 µM | BT-549 > 100 µM | HOP-62 > 100 µM
> 100 µM: HCT-15

CSC1(CC(=O)N(C)C)C(=O)Nc2ccccc21 (centres undefined)
inactive: SR > 100 µM | NCI-H23 > 100 µM | KM12 > 100 µM | NCI/ADR-RES > 100 µM | SW-620 > 100 µM | U-251 > 100 µM | A549 > 100 µM | K562 > 100 µM | LOX IMVI > 100 µM | EKVX > 100 µM | 786-0 > 100 µM | MCF7 > 100 µM | OVCAR-4 > 100 µM | T47D > 100 µM | SF-295 > 100 µM | A498 > 100 µM | SNB-75 > 100 µM | SK-OV-3 > 100 µM | NCI-H460 > 100 µM | TK-10 > 100 µM | Hs-578T > 100 µM | MDA-MB-435 > 100 µM | PC-3 > 100 µM | RPMI-8226 > 100 µM | M14 > 100 µM | SK-MEL-2 > 100 µM | SF-539 > 100 µM | UACC-62 > 100 µM | HCT-116 > 100 µM | SNB-19 > 100 µM | COLO 205 > 100 µM | UACC-257 > 100 µM | SF-268 > 100 µM | OVCAR-5 > 100 µM | MOLT-4 > 100 µM | Malme-3M > 100 µM | UO-31 > 100 µM | HCC 2998 > 100 µM | OVCAR-3 > 100 µM | SK-MEL-28 > 100 µM | NCI-H226 > 100 µM | HT-29 > 100 µM | IGROV-1 > 100 µM | SK-MEL-5 > 100 µM | DU-145 > 100 µM | ACHN > 100 µM | BT-549 > 100 µM | HOP-62 > 100 µM
> 100 µM: HCT-15

O=C1/C(=C/c2cccc3ccccc23)Cc2ccccc21
inactive: SR 57.3 µM | NCI-H23 17.1 µM | KM12 35.9 µM | NCI/ADR-RES 52.2 µM | SW-620 31.6 µM | U-251 19.6 µM | A549 38.4 µM | K562 62.4 µM | LOX IMVI 34.4 µM | EKVX 26.3 µM | 786-0 20.4 µM | MCF7 5.93 µM | OVCAR-4 22.3 µM | A498 37 µM | SNB-75 29.8 µM | SK-OV-3 18.6 µM | NCI-H460 36.6 µM | TK-10 49.2 µM | Hs-578T 22 µM | PC-3 16.9 µM | RPMI-8226 51.9 µM | M14 59.2 µM | CAKI-1 25.6 µM | SF-539 27.2 µM | UACC-62 22.4 µM | OVCAR-8 53.8 µM | SNB-19 17.9 µM | SF-268 22.6 µM | OVCAR-5 29.2 µM | MOLT-4 40.5 µM | HL-60 28.4 µM | RXF 393 16.7 µM | UO-31 22.1 µM | HCC 2998 15.5 µM | OVCAR-3 27.1 µM | SK-MEL-28 32.8 µM | NCI-H226 10.5 µM | CCRF-CEM 59.2 µM | HT-29 32.7 µM | IGROV-1 41.4 µM | SK-MEL-5 29.9 µM | ACHN 36.5 µM | SN12C 49.5 µM | BT-549 13.2 µM
34.9 µM: HCT-15
